Assays:
logP by HPLC = assay type: physicochemical
Botrytis cinerea = experiment: Botrytis test (bean)/protective; assay type: in vivo; conditions: bean plants, protective spray, application rate 500 g/ha, evaluated 2 days after inoculation
Description: Botrytis Test (Bean)/Protective
Solvents: 24.5 parts by weight of acetone
• 24.5 parts by weight of dimethylacetamide Emulsifier: 1.0 part by weight of alkylaryl polyglycol ether
To produce a suitable preparation of active compound, 1 part by weight of active compound is mixed with the stated amount of solvents and emulsifier, and the concentrate is diluted with water to the desired concentration.
To test for protective activity, young plants are sprayed with the preparation of active compound at the stated application rate. After the spray coating has dried on, 2 small pieces of agar colonized by Botrytis cinerea are placed onto each leaf. The inoculated plants are placed in a dark chamber at about 20° C. and 100% relative atmospheric humidity.
The size of the infected areas on the leaves is evaluated 2 days after the inoculation. 0% means an efficacy which corresponds to that of the control, whereas an efficacy of 100% means that no infection is observed.

Row | SMILES | chromatographic logP (logP by HPLC) | efficacy (Botrytis cinerea)
1 | CC(Nc1c(-c2ccc(F)cc2Cl)c(Cl)nc2c(C#N)cnn12)C(C)(C)C (stereo not shown) [Example 4] | 4.92 | –
2 | CC1CCN(c2c(-c3ccc(F)cc3Cl)c(Cl)nc3c(C(=O)C(F)(F)F)cnn23)CC1 [Example 1, 3-trifluoroacetyl-5-chloro-6-(2-chloro-4-fluorophenyl)-7-(4-methylpiperidino)-pyrazolo[1,5-a]pyrimidine] | 5.44 | more than 90%
3 | CC(C)C(C)Nc1c(-c2ccc(F)cc2Cl)c(Cl)nc2c(C(=O)C(F)(F)F)cnn12 (stereo not shown) [Example 2] | 5.08 | –
